For assay [1], the system named is Escherichia coli. As to the kind of experiment: Antibacterial activity against Escherichia coli K-12 at 100 ug/ml after 24 hr by filter paper disk method. The class given is functional. The conditions noted are these: for zone of inhibition at 100 µg/mL: K-12, 24 h, read-out: DIZ.
The subject of assay [2] is Candida albicans. As to the kind of experiment: Antifungal activity against Candida albicans at 100 ug/ml after 18 to 48 hr. The conditions noted are these: for zone of inhibition at 100 µg/mL: read-out: DIZ. The class given is functional.
Assay [3] deals with Aspergillus niger. As to the kind of experiment: Antifungal activity against Aspergillus niger at 100 ug/ml after 72 hr. It is filed as functional. The following applies: for zone of inhibition at 100 µg/mL: read-out: DIZ.
For assay [4], the system named is Bacillus subtilis. Kind of assay: Antibacterial activity against Bacillus subtilis MTCC 121 at 100 ug/ml after 24 hr by filter paper disk method. The class given is functional. The following applies: for zone of inhibition at 100 µg/mL: MTCC 121, 24 h, read-out: DIZ.
The test system of assay [5] is Staphylococcus aureus. Kind of assay: Antibacterial activity against Staphylococcus aureus SA 22 at 100 ug/ml after 24 hr by filter paper disk method. The conditions noted are these: for zone of inhibition at 100 µg/mL: SA 22, 24 h, read-out: DIZ. The class given is functional.
Assay [6] deals with Salmonella typhimurium. As to the kind of experiment: Antibacterial activity against Salmonella enterica subsp. enterica serovar Typhimurium MTCC 98 at 100 ug/ml after 24 hr by filter paper disk method. It is filed as functional. The following applies: for zone of inhibition at 100 µg/mL: MTCC 98, 24 h, read-out: DIZ.
Assay [7] concerns Aspergillus fumigatus. As to the kind of experiment: Antifungal activity against Aspergillus fumigatus at 100 ug/ml after 72 hr. The class given is functional. The following applies: for zone of inhibition at 100 µg/mL: read-out: DIZ.
Assay [8] concerns Candida albicans. Kind of assay: Antifungal activity against Candida albicans at 30 ug/disk after 18 to 48 hr. It is filed as functional, organism-based.
Assay [9] relates to Aspergillus niger. As to the kind of experiment: Antifungal activity against Aspergillus niger at 30 ug/disk after 72 hr. It is filed as functional, organism-based.
For assay [10], the system named is Aspergillus fumigatus. As to the kind of experiment: Antifungal activity against Aspergillus fumigatus at 30 ug/disk after 72 hr. It is filed as functional, organism-based.
Assay [11] concerns Staphylococcus aureus. Kind of assay: Antibacterial activity against Staphylococcus aureus SA 22 at 30 ug/disc after 24 hr by filter paper disk method. It is filed as functional. The following applies: SA 22, 24 h, read-out: DIZ.
The subject of assay [12] is Bacillus subtilis. As to the kind of experiment: Antibacterial activity against Bacillus subtilis MTCC 121 at 30 ug/disk after 24 hr by filter paper disk method. It is filed as functional. The following applies: MTCC 121, 24 h, read-out: DIZ.
For assay [13], the system named is Escherichia coli. Kind of assay: Antibacterial activity against Escherichia coli K-12 at 30 ug/disc after 24 hr by filter paper disk method. It is filed as functional. The conditions noted are these: K-12, 24 h, read-out: DIZ.
Assay [14] has as its system Salmonella typhimurium. As to the kind of experiment: Antibacterial activity against Salmonella enterica subsp. enterica serovar Typhimurium MTCC 98 at 30 ug/disc after 24 hr by filter paper disk method. It is filed as functional. The following applies: MTCC 98, 24 h, read-out: DIZ.

The source made the active and inactive calls. The rule behind the calls is not given here.

Turning to `Cc1nn(-c2ccccc2)c(Cl)c1/C=C1\Sc2ccccc2NC1=O`, the values for the zone of inhibition at 100 µg/mL in the assay on Escherichia coli [1], in the assay on Candida albicans [2] and with Staphylococcus aureus [5] were 8 mm, 15 mm and 14 mm, respectively. For the same molecule, the “diameter of the inhibition zone (DIZ)” value with Aspergillus niger [3], in the assay on Bacillus subtilis [4], in the assay with Salmonella typhimurium [6] and in the assay with Aspergillus fumigatus [7] was “inactive” throughout.

On to `Cc1nn(-c2ccccc2)c(Cl)c1C=C1C(=O)N(C)C(=S)N(C)C1=O`, for which the zone of inhibition at 100 µg/mL with Escherichia coli [1] amounted to 15 mm; with Candida albicans [2] it was 16 mm; with Bacillus subtilis [4], 8 mm; in the assay on Staphylococcus aureus [5], 12 mm; with Salmonella typhimurium [6], 17 mm. Moreover, the “diameter of the inhibition zone (DIZ)” value with Aspergillus niger [3] and in the assay on Aspergillus fumigatus [7] was “inactive” throughout.

For `Cc1nn(-c2ccccc2)c(Cl)c1C=C1C(=O)OC(C)(C)OC1=O`, the “diameter of the inhibition zone (DIZ)” value with Escherichia coli [1], with Aspergillus niger [3], in the assay with Salmonella typhimurium [6] and in the assay with Aspergillus fumigatus [7] was “inactive” in each case. Besides, the zone of inhibition at 100 µg/mL came out at 14 mm in the assay with Candida albicans [2], 15 mm with Bacillus subtilis [4] and 19 mm with Staphylococcus aureus [5].

`CC1=NN(c2ccccc2)C(=O)/C1=C/c1c(C)nn(-c2ccccc2)c1Cl`: the zone of inhibition at 100 µg/mL with Escherichia coli [1] was found to be 8 mm; with Aspergillus niger [3] it was 10 mm; in the assay on Bacillus subtilis [4] it was 12 mm; with Salmonella typhimurium [6] it was 12 mm; in the assay with Aspergillus fumigatus [7], 11 mm. In addition, the “diameter of the inhibition zone (DIZ)” value in the assay on Candida albicans [2] and with Staphylococcus aureus [5] was “inactive” throughout.

For NYSTATIN, the “diameter of the inhibition zone (DIZ)” value with Escherichia coli [1], with Bacillus subtilis [4], in the assay on Staphylococcus aureus [5] and in the assay on Salmonella typhimurium [6] was “inactive” each time. Besides, the inhibition zone (IZ) in the assay on Candida albicans [8] was 20 mm; with Aspergillus niger [9] it was 18 mm; in the assay on Aspergillus fumigatus [10] it was 18 mm.

`O=C(N[C@H](CO)[C@H](O)c1ccc([N+](=O)[O-])cc1)C(Cl)Cl` [CHLORAMPHENICOL]: the “diameter of the inhibition zone (DIZ)” value with Candida albicans [2], in the assay with Aspergillus niger [3] and in the assay with Aspergillus fumigatus [7] was “inactive” each time. The zone of inhibition at 30 µg/disc in the assay on Staphylococcus aureus [11] was 26 mm; in the assay with Bacillus subtilis [12], 24 mm; in the assay on Escherichia coli [13], 25 mm; with Salmonella typhimurium [14], 20 mm.

Turning to `Cc1nn(-c2ccccc2)c(Cl)c1C=C1C(=O)NC(=O)NC1=O`, the zone of inhibition at 100 µg/mL in the assay on Escherichia coli [1] was found to be 15 mm; with Bacillus subtilis [4] it was 19 mm; in the assay with Staphylococcus aureus [5], 17 mm; in the assay on Salmonella typhimurium [6] it was 12 mm. The “diameter of the inhibition zone (DIZ)” value with Candida albicans [2], in the assay with Aspergillus niger [3] and with Aspergillus fumigatus [7] was “inactive” each time.

As for `Cc1nn(-c2ccccc2)c(Cl)c1C=C1C(=O)N(C)C(=O)N(C)C1=O`, the zone of inhibition at 100 µg/mL in the assay on Escherichia coli [1] was 15 mm; in the assay on Candida albicans [2], 11 mm; with Aspergillus niger [3] it was 8 mm; with Bacillus subtilis [4] it was 16 mm; in the assay on Staphylococcus aureus [5] it was 20 mm; with Salmonella typhimurium [6], 14 mm. Besides, in the assay on Aspergillus fumigatus [7], the zone of inhibition at 100 µg/mL stood at 11 mm.

On to `Cc1nn(-c2ccccc2)c(Cl)c1C=C1C(=O)c2ccccc2C1=O`, for which the zone of inhibition at 100 µg/mL with Escherichia coli [1] was found to be 17 mm; in the assay on Candida albicans [2], 12 mm; with Aspergillus niger [3] it was 8 mm; in the assay with Bacillus subtilis [4], 8 mm; in the assay with Staphylococcus aureus [5] it was 12 mm; in the assay on Salmonella typhimurium [6] it was 15 mm. Besides, in the assay with Aspergillus fumigatus [7], the zone of inhibition at 100 µg/mL was 10 mm.

Source of the values: ChEMBL document CHEMBL3046515, “Zn(Proline)2-catalyzed Knoevenagel condensation under solvent-free/aqueous conditions and biological evaluation of products” (2011).
